Assay results reported in patent publication US20220257621A1, “CANCER CELL PROLIFERATION SUPPRESSION AGENT AND COMPOSITION FOR SUPPRESSING PROLIFERATION OF CANCER CELLS” (SHOWA DENKO K.K., priority 2019, published 2022).

Columns and labels:
[1] = system: cell line derived from Lewis lung carcinoma (LLC); experiment: Effect (2) of suppressing proliferation of cancer cells, inositol derivative and Na tocopherol phosphate (WST-8); type: cell-based; settings: Na tocopherol phosphate 10 μM and/or inositol derivative 0.001% by mass 24 h, then atmospheric dust 500 μg/mL 48 h, control without dust = 1, dust + 0.05% ethanol = 1.69
Description: The effect of the inositol derivative and Na tocopherol phosphate on suppressing the proliferation of cancer cells in a cell line derived from Lewis lung carcinoma (LLC, JCRB Cell Bank) was measured under the following conditions. As the following Na tocopherol phosphate, TPNa (registered trademark) (manufactured by Showa Denko K. K.), which is sodium d1-α-tocopheryl phosphate, was used.
The LLC cells were seeded at the seeding density of 50000 cells/cm^2 in a culture medium in which a Ham F10 medium and an L15 medium (both manufactured by Sigma-Aldrich) were mixed at the ratio of 3:7 (volume ratio), and cultured for 24 hours under the conditions of 37° C. and 5% CO2. Next, Na tocopherol phosphate alone (final concentration of 10 μM in the culture medium), the inositol derivative alone (final concentration of 0.001% by mass in the culture medium), or a combination of Na tocopherol phosphate (final concentration of 10 μM in the culture medium) and the inositol derivative (final concentration of 0.001% by mass in the culture medium) was added to the culture medium. […] Thereafter, the culture medium was replaced with a medium containing 10% (V/V) of WST-8 of Nacalai Tesque Inc., and after further culturing for 3 hours, the absorbance at the wavelength of 450 nm was measured with a microplate reader i-Control (manufactured by Tecan Group Ltd.). […]

[2] = system: normal human epidermal keratinocytes (NHEK); experiment: Effect (2) of suppressing ROS production, inositol derivative and Na tocopherol phosphate; type: cell-based; settings: Na tocopherol phosphate 10 μM and/or inositol derivative 0.001% by mass 24 h, then atmospheric dust 500 μg/mL 48 h, control without dust = 1, dust + 0.05% ethanol = 2.41
Description: The effect of the inositol derivative and Na tocopherol phosphate on suppressing ROS production in normal human epidermal keratinocytes (NHEK, manufactured by KURABO INDUSTRIES LTD.) was measured under the following conditions. As the following Na tocopherol phosphate, TPNa (registered trademark) (manufactured by Showa Denko K. K.), which is sodium d1-α-tocopheryl phosphate, was used.
The NHEK cells were seeded in a HuMedia KG2 medium manufactured by KURABO INDUSTRIES LTD. at the seeding density of 10000 cells/cm^2, and cultured for 24 hours under the conditions of 37° C. and 5% CO2. Next, Na tocopherol phosphate alone (final concentration of 10 μM in the culture medium), the inositol derivative alone (final concentration of 0.001% by mass in the culture medium), or a combination of Na tocopherol phosphate (final concentration of 10 μM in the culture medium) and the inositol derivative (final concentration of 0.001% by mass in the culture medium) was added to the culture medium. […] Thereafter, the ROS production amount was measured using a ROS assay kit (manufactured by OZ BIOSCIENCES). […] After washing the cells with PBS again, 100 μL of PBS was added, and the fluorescence intensity at an excitation wavelength of 485 nm/an absorption wavelength of 535 nm was measured with a microplate reader i-Control (manufactured by Tecan Group Ltd.). […]

`Cc1c(C)c2c(c(C)c1OP(=O)([O-])[O-])CCC(C)(CCCC(C)CCCC(C)CCCC(C)C)O2.[Na+].[Na+]` (stereo not drawn) [Na tocopherol phosphate, sodium d1-α-tocopheryl phosphate] was tested, and the “Relative cell proliferation amount” value [1] was 1.33 and the “Relative ROS production amount” value [2] was 1.53.
